Data on two molecules can be found in publication PMC8041751, “Structural basis for an exceptionally strong preference for asparagine residue at the S2 subsite of Stenotrophomonas maltophilia dipeptidyl peptidase 7” (Scientific Reports, 2021).

A word on the Ki: it is the dissociation constant of the complex between target and ligand, obtained from inhibition or displacement. Higher therefore signals weaker binding. In general, Kd refers to the constant that tells how readily two partners part at equilibrium.

Residues, ends and D or L forms follow the SMILES beside them. Some results are limits rather than exact numbers.

In one assay the target is SmDPP7. Put plainly: Inhibition assay using dipeptide library, Tyr-Tyr-MCA hydrolysis. The assay is classed as biochemical, Stenotrophomonas maltophilia. The settings on record: for Ki: Xaa-Tyr as competitive inhibitor, substrate 200 µM Tyr-Tyr-MCA, pH 7.0, 298 K, Ki from IC50 by Cheng-Prusoff. The protocol: Figure 1 Effect of Xaa-Tyr dipeptides on the hydrolytic activity of SmDPP7 towards synthetic substrate Tyr-Tyr-MCA. Inhibition assay was performed as described in “Materials and methods”. Residual activity was measured under conditions where 200 µM Xaa-Tyr dipeptide and 200 µM Tyr-Tyr-MCA, synthetic substrate were added into the reaction solution. […] The standard deviations were obtained from three independent experiments.
The dipeptide library was purchased from AnaSpec (Fremont, CA, US). Ile-Tyr and Arg-Tyr were synthesized by Eurofins Genomics (Tokyo, Japan). Cys-Tyr and Cys-Asp could not be purchased commercially. Different concentrations (3.13, 6.25, 12.5, 25, 50, 100, and 200 µM) of dipeptides as the inhibitor and 200 µM Tyr-Tyr-MCA (GenScript, NJ, US) as the substrate for DPP7 were added into a reaction buffer consisting of 50 mM sodium phosphate buffer pH 7.0, 5 mM EDTA and 0.005% Tween 20. For DPP11s, different concentrations (1.56, 3.13, 6.25, 12.5, 25, 50, and 100 µM) of dipeptides as the inhibitor and 100 µM Leu-Asp-MCA (Peptide Institute, Osaka, Japan) as the substrate were used. The enzyme reaction was performed at 298 K for 20 min and standard deviations were calculated from three independent experiments. Half-maximal inhibitory concentration (IC50) values were determined by fitting to a sigmoid curve (4-parameter logistic curve) using ImageJ software[35] and inhibition constants (Ki) were calculated using the Cheng-Prusoff Equation[36]. The fluorescence intensity of the released MCA was measured with the same method of determination of kinetics parameters toward dipeptidyl MCA.

For the next assay, the target named is wild-type SmDPP7. Put plainly: Isothermal titration calorimetry of dipeptide binding. Details: species or system Stenotrophomonas maltophilia. The settings on record: ITC, 50 mM sodium phosphate pH 7.0, 2.5% dimethyl sulfoxide, 25 °C. Here is the method: Figure 6 Thermodynamic parameters of dipeptide binding of SmDPP7. The value of thermodynamic parameters is represented in Table S3. The dissociation constant (Kd) and heats of binding (ΔH) were obtained using MICROCAL PEAQ-ITC Analysis software (Malvern, UK). Gibbs free energy (ΔG) and entropy energy (ΔS) were calculated according to the equation, ΔG = − RT ln Ka = RT ln Kd (Ka = 1/ Kd, association constants). Standard deviations were obtained from three independent experiments.
The bindings were analysed using a MICROCAL PEAQ-ITC microcalorimeter (Malvern, UK). The binding reactions were performed in 50 mM sodium phosphate pH 7.0 and 2.5% dimethyl sulfoxide at 25 °C and were stirred at 750 rpm. A single injection of 0.4 μl and 19 times injections of 2.0 μl of the dipeptide solution were injected into 350 μl of enzyme solution (wild-type SmDPP7). The wild-type SmDPP7 concentration was 25 µM and the concentration of each dipeptide solution was 250 µM in reaction buffer. Each injection was performed for 4 s with an interval of 150 s between injections. The dissociation constant (Kd) and heats of binding (ΔH) were obtained using MICROCAL PEAQ-ITC Analysis software (Malvern, UK). Gibbs free energy (ΔG) values were calculated according to ΔG = − RT ln Ka = RT ln Kd (Ka = 1/ Kd, association constants).
Background: Isothermal titration calorimetry measures the heat released or taken up as one component is titrated into another.

The molecule `CC(C)[C@H](N)C(=O)N[C@@H](Cc1ccc(O)cc1)C(=O)O` [Val-Tyr] (H-Val-Tyr-OH) came in with a Ki at SmDPP7 of 55.2 ± 0.5 µM. This molecule returned a Kd at wild-type SmDPP7 greater than 40 µM.
As to Tyr-Tyr, the “Effect on hydrolytic activity of SmDPP7 (residual activity)” value with SmDPP7 (200 µM Xaa-Tyr dipeptide and 200 µM Tyr-Tyr-MCA, Fig. 1) is listed as “markedly inhibited”. In addition, at SmDPP7, the affinity corresponds to a Ki of 7.66 ± 1.27 µM. In addition, binding at wild-type SmDPP7 was put at a Kd of 6.17 ± 0.39 µM.
